Measured values from patent US9127291B2, “Methods and products for biasing cellular development” (University of Central Florida Research Foundation, Inc., priority 2004, dated 2015).
Entries after “also recorded” stand apart in the source; their conditions may differ.

Experiments:
LA-N-2 cells = assay: Retinoic acid treatment of LA-N-2 human neuroblastoma cells; format: cell-based; conditions: final concentration 10^−6M
Description: LA-N-2 cells were obtained from Dr. Jan Blusztajn (Boston University, MA). The cells were cultured in Leibovitz L-15 medium (Gibco, BRL, Burlington, ON) containing 10% fetal calf serum and antibiotic-antimyotic mixture (Gibco) in a humidified incubator at 37° C. without CO2. The medium was replaced every 3 days. For treatment with retinoic acid (RA), the cells were sub-plated at a density of 0.5-1×10^6 cells/plate using 0.25% trypsin/1 mM EDTA (Gibco, BRL) and allowed to attach overnight. A fresh stock of 4 mM all-trans retinoic acid RA (Sigma, St. Louis, Mo.) was prepared in 100% ethanol under amber lighting. […] The media was changed every 48 h during the differentiation of the cells, which was complete after 7-14 days.
Following fixation, HNSCs were briefly washed 3×5 min in Phosphate buffered saline (PBS), then blocked with 3% normal donkey serum in PBS containing 0.05% Tween 20 (PBS-T) and incubated with goat IgG polyclonal anti-human ChAT (1:500, Chemicon), mouseIgG2b monoclonal anti-human βIII-tubulin (1:1000, Sigma) or rabbit anti-human […] (GFAP) (1:1000, Sigma) overnight at 4° C. The corresponding secondary antibodies (donkey anti-goat, donkey anti-mouse, and donkey anti-rabbit, respectively) conjugated to rhodamine or FITC (Jackson IR Laboratories, Inc.) were added for a 2 hr incubation at RT in the dark. […]

[1] = test system: Human Neural Stem Cells (HNSCs); assay: Differentiation of Hath1-transfected HNSCs (calretinin immunocytochemistry, Western blot, electron microscopy); format: cell-based
Description: An established a non-serum HNSC culture system was utilized to investigate the differentiation of human neural stem cells (HNSCs) within a defined condition. (Christopher L. Brannen and Kiminobu Sugaya, Regeneration and Transplantation, 11:5, 1123-1128 (2000)). The serum-free supplemented growth medium consisted of HAMS-F12 (Gibco, BRL, Burlington, ON), antibiotic/antimycotic mixture (1:100, Gibco), B27 (1:50, Gibco), human recombinant FGF-2 and EGF (20 ng/ml each, R and D Systems, Minneapolis, Minn.), and heparin (5 ug/ml, Sigma, St. Louis, Mo.). Cells were maintained in 20 ml of this medium at 37° C. in a 5% CO2 humidified incubation chamber.
The mammalian expression vector containing Hath1 gene was transfected into HNSCs by using the Neuroporter Kit (Gene Therapy Systems, Inc. San Diego, Calif.) and Hath 1 gene expression was confirmed by RT-PCR. These Hath1-transfected HNSCs were differentiated for 7 days by the depletion of mitotic factors (FGF-2, EGF) from the culture media. After the differentiation the cells were fixed for immunocytochemistry and Electron Microscopy.
The gene expression of Hath1 is assessed by RT-PCR with the following condition: 95° C. (60″), 56° C. (60″), 72° C. (60″) for 35 cycles, with an initial denaturation of 95° C. (5′) and final elongation of 72° C. (15′). The Hath1 gene is transfected into Human Neural Stem Cells (HNSCs) using the Neuroporter Kit. The Neuroporter kit utilizes a lipid-based transfection system for the use with cultured primary neurons, neuronal cell lines, and glial cells. DNA and Neuroporter are used in a ratio of 10 μg DNA/75 μl Neuroporter, utilizing 37.5 μl per well in a 6-well plate and with total volumes of 1.5 mL growth media per well. […]
Following PBST washing, the cells are incubated with secondary antibody biotinylated anti-rabbit made in goat in PBS containing 0.05% Triton-X100 (PBST), with a dilution factor of 1:200. […] The cells are washed with water, ethanol, and xylene, coverslipped with permount, and ready for viewing with microscopy. […]

HNSCs [2] = assay: Co-culture of HNSCs transfected with human Lhx8 gene with RA-treated LA-N-2 cells; format: cell-based; conditions: co-culture with RA-treated LA-N-2 cells
Description: Using the same vector formation and transfection methods as in Example 2, the Human Lxh8 gene (SEQ ID NO: 6) is transfected into HNSCs. Transfected NHSC cells are cultured in a first treatment that includes LA-N-2 cells that are treated with RA and that express both Lhx8 and ChAT. A co-culture control comprises NHSCs that are not transfected but that are in the same culture vessel as LA-N-2 that are treated with RA and that express both Lhx8 and ChAT. For the first treatment and the co-culture control, HNSC cells are placed in cell culture inserts with an appropriate pore size and suspended in basal media (in the absence of FGF-2 and EGF and without the addition of other extrinsic differentiation factors) over differentiated LA-N-2 cells plated in 6-well plates.
Immunochemistry follows the same procedure as in Example 2 above.

HNSCs [3] = assay: Co-culture of Lhx8-transfected HNSCs with RA-treated LA-N-2 cells, immunocytochemistry; format: cell-based, human
Description: HNSCs culture: Human NSCs were originally purchased from BioWhittaker, Walkersville, Md. These cells have been expanded and passaged in a serum-free culture medium containing bFGF and EGF in our laboratory for over three years (Brannen & Sugaya, 2000). The HNSCs were cultured at a density of 50 spheres in 75 cm^2 culture flasks (Corning, Cambridge, Mass.) in 20 ml of a serum-free supplemented growth medium consisting of HAMS-F12 (Gibco, BRL, Burlington, ON), antibiotic-antimycotic mixture (1:100, Gibco), B27 (1:50, Gibco), human recombinant FGF-2 and EGF (20 ng/ml each, R&D Systems, Minneapolis, Minn.) and heparin (5 μg/ml, Sigma, St. Louis, Mo.) incubated at 37° C. in a 5% CO^2 humidified incubation chamber (Fisher, Pittsburgh, Pa.). To facilitate optimal growth conditions, HNSCs were sectioned into quarters every 2 weeks and fed by replacing 50% of the medium every 4-5 days.
HNSCs were placed in 6-well poly-lysine coated plates and transfected with 4 μg pcDNA 3.1/Lhx8 plasmid using the Neuroporter transfection system (Gene Therapy Systems, see description in Example 1). Upon the insertion of the Lhx8 gene expressible sequence into the directional cloning vector, the expressible sequence was operatively linked to the CMV promoter, and was also positioned upstream (with regard to reading) of a polyadenylation transcription termination site. Lhx8 expression was confirmed after 48 hrs by RT-PCR using primers designed from the gene cDNA sequence; 5′[…]′ 3 (SEQ ID NO: 12, upper primer) and 5′[…]′3 (SEQ ID NO: 13, lower primer). To initiate differentiation, HNSCs were placed in serum-free basal medium, and allowed to differentiate for 10-15 days in culture.
HNSCs (˜5×10^4) transfected with pcDNA 3.1/Lhx8 and non-transfected HNSCs (controls) were transferred into cell culture inserts with an appropriate pore size and suspended in basal media (in the absence of FGF-2 and EGF and without the addition of other extrinsic differentiation factors) over differentiated LA-N-2 cells plated in 6-well plates. […]

CC1=C(/C=C/C(C)=C/C=C/C(C)=C/C(=O)O)C(C)(C)CCC1 [RA, all-trans retinoic acid]
Lhx8 and ChAT gene expression by RT-PCR compared with non-treated cells (LA-N-2 cells; RA): increased expression | marker expression in LA-N-2 cells (immunostaining) (LA-N-2 cells; RA-containing media, 7-14 days): expressed Lhx8, βIII-tubulin, and ChAT

Hath1: Hath1 gene amplified from BAC clone RP11-680J17, cloned into mammalian expression vector pcDNAHismax TOPO TA under CMV promoter
cell morphology by electron microscopy ([1]; transfected HNSCs after differentiation): typical IEHC morphology; also recorded: distinct hair-like projections | calretinin expression by Western blot ([1]; transfected HNSCs differentiated for 7 days): single band specific to calretinin molecular weight | calretinin (hair cell marker) expression by immunocytochemistry ([1]; transfected HNSCs differentiated for 7 days without FGF-2, EGF): existence of cells expressing calretinin

Human Lxh8 gene: Human Lxh8 gene (SEQ ID NO: 6) transfected into HNSCs with the vector and methods of Example 2
differentiated cell type (βIII-tubulin, ChAT staining) (HNSCs [2]): positive for βIII-tubulin and ChAT

B1: Lhx8: mouse cDNA clone for Lhx8 (SEQ ID NO: 7) inserted into pcDNA 3.1/Zeo mammalian expression vector (nucleic acid, listed as Mus musculus)
DNA: GAATTCGGCACGAGCTTCAGGAAAAGACTTTTCCCCCCACTCCCCCTCCTCTCTGCGAGGTTCCACCCTCTGGAAAACACAACTTTCCCTCTTTTTCTGGAGGGACAGGCCTTAGTGTGGCTGAGAGAGGAAGAACAGTGGGTCAGAGAGTGGTTACGTCACTGTGGCCTTTTTGGAACAAGACACACTGGTGGCATCGCTGTCCTGCCTGTTAGCTTTCCTTGGCCTTTGGGGGCGGAGGAGGGGACACTGCGGACACCCACAGCCTCTGACCCTGCTGGAGCTGGTATGTGACGAGCAGCCCTCGGGCCATGTATTGGAAGAGCGATCAGATGTTTGTGTGTAAGCTGGAGGGAAAGGAGATGCCGGAGCTGGCGGTTCCCCGCGAGATGTGCCCCGGGCTCATGTCGGAGGAGTGCGGGCGGCCTGCAGCTGGCGCCGGGAGGACCCGCAAAGGCTCTGGGGAAGAAGGACTGGTGAATCCCGAGGGAGCCGGGGACGAGGACTCCTGCTCCTCCTCGGGCCCGCTTTCCCCGTCGTCCTCGCCCCAGTCCATGGCCTCGGGTCCGATGTGCCCGCCAGGCAAGTGTGTGTGCAGCAGCTGCGGCCTGGAGATTGTGGACAAATACCTCCTCAAGGTGAATGACTTATGCTGGCATGTCCGCTGTCTCTCCTGCAGTGTCTGCAGAACGTCCCTGGGAAGGCACACGAGCTGCTACATTAAGGATAAAGATATTTTCTGTAAACTCGATTACTTCAGACGGTATGGGACCCGCTGTTCCCGCTGTGGCAGGCACATCCACTCGACTGACTGGGTCCGCAGGGCAAAGGGCAACGTGTATCACCTGGCCTGCTTTGCCTGCTTTTCTTGCAAGAGGCAGCTGTCCACGGGAGAGGAGTTCGCCTTGGTGGAGGAGAAGGTCCTCTGTAGAGTGCACTTTGACTGCATGCTGGACAATCTGAAGAGAGAAGTGGAGAACGGTAATGGGATTAGTGTGGAAGGAGCCCTTCTCACAGAGCAAGACGTCAATCATCCAAAGCCAGCCAAAAGAGCTCGGACCAGCTTCACAGCCGATCAGCTCCAGGTTATGCAAGCACAGTTCGCTCAGGACAACAACCCAGATGCACAGACCCTCCAGAAACTGGCAGAAAGGACAGGCTTAAGCAGACGTGTCATACAGGTGTGGTTTCAGAACTGCAGGGCCCGCCATAAGAAACACGTCAGCCCAAACCATTCTTCCTCGGCCCCCGTCACAGCTGTCCCCTCCTCCAGGCTGTCCCCACCCATCTTGGAAGAAATGGCTTATTCTGCCTACGACCCCCAGGATGACGGGATGCTGACTGCGCACTCATACTTGGATGCTCACCAACAACTCCTGGACTCCAGCCCTTGTTACCCCATCCAATGACCCAGCTGCCAATAAGTCATACCTAATTCCTTCTTTCAGGGATAGAAATGATTGAGGTTATAAACTTGTCATTTTATTATGTATAAAAATA
differentiated cell type (βIII-tubulin, ChAT staining) (HNSCs [3]; co-culture with LA-N-2 cholinergic cells, serum-free, 10-20 days): differentiated into mainly βIII-tubulin and ChAT-positive cells; also recorded: differentiated mostly neurons with long extended processes | percentage of transfected cells with characteristics of cholinergic neurons (HNSCs [3]; one trial, end of trial): over 40% | number of cells differentiating to cells having characteristics of cholinergic cells, versus non-transfected HNSCs (HNSCs [3]; transfected HNSCs cultured without differentiated LA-N-2 cells): no significant difference
